# Measured values reported in PubChem BioAssay AID489035 (Sanford-Burnham Center for Chemical Genomics, 2010).
# Calls of active or inactive are those of the source. The rule behind the calls is not given here. Starred links: 1 amine or outer side, 2 acyl side, 3 side chain; linkers in the order of their positions; H or OH if unused. Non-standard residues stand in square brackets, D forms with d. Residues, ends and D or L forms follow the SMILES beside them. X2 = CCC[C@@H](N[*:1])[C@H](C)C(=O)O[C@H](C(=O)[*:2])[C@@H](C)CC; X1 = CC(N[*:1])C(=O)C(C)(C)C(=O)[*:2]; NMeY = CN[C@@H](Cc1ccc(O)cc1)C(=O)O; NMeL = CN[C@@H](CC(C)C)C(=O)O; NMeV = CN[C@H](C(=O)O)C(C)C; NMeA = CN[C@@H](C)C(=O)O
# Tested on: Jurkat NF-kB reporter, TCR-induced, luciferase luminescence
# Test: inhibitors of TCR-driven NF-kB activation, dose response, Jurkat cells, luminescence (AID 489035)
row,SMILES,IC50
1,COc1cc(OC)c(/C=C2\C(=O)Nc3ccccc32)c(OC)c1,18.4 µM
2,Oc1ccc2ccccc2c1/C=N/Nc1nnc(-c2ncc[nH]2)c2ccccc12,> 80 µM (inactive)
3,COc1ccccc1C(=O)N(CCC1CCCN1C)c1nc2ccccc2s1 (configuration not stated),45.7 µM (inactive)
4,CCCCCCCCCCn1c2c(c(=N)c3c1CCC3)CCC2,5.17 µM
5,O=S(=O)(Nc1ccc(F)cc1Cl)c1ccc(-c2cnc(C3CC3)o2)cc1,> 80 µM (inactive)
6,CCOC(=O)/C=C/S(=O)(=O)c1ccc(NC(C)=O)cc1,1.12 µM
7,CCCCc1ccc(NC(=O)C(=O)NCCN2CCN(Cc3ccc([N+](=O)[O-])cc3)CC2)cc1,> 80 µM (inactive)
8,COC(=O)c1ccccc1NC1=C/C(=N\S(=O)(=O)c2cccs2)c2ccccc2C1=O,2.91 µM
9,Cc1ccc(S(=O)(=O)Nc2ccccc2-c2ccccc2)cc1,22.6 µM (inactive)
10,Cc1ccc(S(=O)(=O)/N=C2\C=C(Nc3ccc(O)cc3)C(=O)c3ccccc32)cc1,0.62 µM
11,CCOC(=O)Nc1nc(-c2ccccc2)c(C(=O)c2ccc(Cl)cc2)s1,4.16 µM
12,COc1ccc(CC(=O)Nc2cccc(-c3nnc(-c4cccc(C)c4)o3)c2)cc1OC,47.6 µM (inactive)
13,O=C(N[C@@H](Cc1ccccc1)C(=O)CCl)OCc1ccccc1,0.54 µM
14,COc1cc2c(c(OC)c1OC)-c1ccc(O)cc1[C@@H](NC(C)=O)CC2,> 80 µM (inactive)
15,Cc1ccc2nc(-c3ccc4c(c3)OCCO4)cn2c1,1.01 µM
16,CCCCCCCCCn1c2c(c(=N)c3c1CCC3)CCC2,7.67 µM
17,C=C(C=O)C[C@@H]1C[C@H](O)C2OC3C[C@]4(C)OC5/C=C\CC6OC7C(CC=CCC6OC5CCCC4OC3CC2O1)OC1CC2OC3CC(=O)OC3C[C@@H](C)C[C@@]2(C)OC1C[C@@H]7C (some centres not stated),1.39 µM
18,CCCCCCCCn1c2c(c(=N)c3ccccc31)CCC2,3.43 µM
19,CCCc1cc(C(=O)N/N=C/c2ccc(CC)s2)c2ccccc2n1,13 µM
20,Clc1ccc(CSc2nncn2-c2ccc3c(c2)OCCO3)cc1,> 80 µM (inactive)
21,COc1ccc(S(=O)(=O)N2N=C(C)Oc3ccccc3C2=O)cc1,33 µM (inactive)
22,COc1ccccc1CNS(=O)(=O)c1ccc(-c2cnc(C3CC3)o2)cc1,31.3 µM (inactive)
23,CCCCn1c2c(c(=N)c3c1CCC3)CCC2,> 80 µM (inactive)

row,SMILES,IC50
1,Cc1ccccc1NC1=C/C(=N\S(=O)(=O)c2cccs2)c2ccccc2C1=O,1.25 µM
2,O=Cc1cc2ccccc2nc1SCc1ccc(Cl)c(Cl)c1,> 80 µM (inactive)
3,C=C(C)[C@@]12OC3(c4ccccc4)O[C@@H]1C1[C@@H]4O[C@]4(CO)[C@@H](O)[C@]4(O)C(=O)C(C)=C[C@H]4[C@@]1(O3)[C@H](C)[C@H]2OC(=O)/C=C/C=C/c1ccccc1 (some centres not stated),27.9 µM (inactive)
4,CCn1c2ccccc2c2cc(NC(=O)c3cc(OC)cc(OC)c3)ccc21,> 80 µM (inactive)
5,COc1ccc(NC(=O)/C(Cl)=C(/Cl)S(=O)Cc2ccc(Cl)cc2)cn1 (configuration not stated),0.27 µM
6,CCOC(=O)c1[nH]c2c(c1C)C(=O)CC(c1ccco1)C2 (configuration not stated),> 80 µM (inactive)
7,CC#CC(=O)N1CCC(n2nccc2NC(=O)c2ccc3c(c2)OCO3)CC1,> 80 µM (inactive)
8,Cc1ccc(N(C)S(=O)(=O)c2ccc(-c3cnc(C4CC4)o3)cc2)cc1,44.6 µM (inactive)
9,CCCCCCCCCn1c2c(c(=N)c3c1CCC3)CCCC2,3.4 µM
10,O=C(CNC(=O)c1ccco1)N=Nc1c(O)n(CCc2ccccc2)c2ccccc12,> 80 µM (inactive)
11,C/C=C(\C)C(=O)N[C@@H](c1ccccc1)[C@@H](O)C(=O)O[C@H]1C[C@@]2(O)[C@@H](OC(=O)c3ccccc3)C3[C@](C)(C(=O)[C@H](OC(C)=O)C(=C1C)C2(C)C)[C@@H](O)C[C@H]1OC[C@@]31OC(C)=O (some centres not stated),< 0.16 µM
12,Cc1[nH]n(-c2ccccc2)c(=O)c1/C=N/Nc1nncc(-c2ccccc2)n1,3.32 µM
13,Cc1cc(C)cc(NS(=O)(=O)c2ccc(-c3cnc(C4CC4)o3)cc2)c1,20.5 µM (inactive)
14,Cc1cccc(NS(=O)(=O)c2ccc(-c3cnc(C4CC4)o3)cc2)c1,> 80 µM (inactive)
15,CCn1nc(C)c(CNC(=O)c2ccc(OC3CCN(Cc4ccccn4)CC3)cc2)c1C,> 80 µM (inactive)
16,COc1ccc(C(=O)c2ccc(N(C)C)cc2)c(OC)c1,> 80 µM (inactive)
17,COc1ccccc1-c1nnc2n1N=C(c1ccc(O)c(O)c1)CS2,7.43 µM
18,CC1(C)CC(N2CCN(C(c3ccccc3)c3ccccc3)CC2)=CC(=[N+]2CCCCC2)C1,15.9 µM
19,CCN(CC)c1ccc(/C=N/NC(=O)c2cccc(S(=O)(=O)Nc3ccccc3OC)c2)c(O)c1,3.37 µM
20,Cc1cccc(OCCNC(=O)c2ccc(Cl)c(S(=O)(=O)NCc3cccnc3)c2)c1,> 80 µM (inactive)
21,Cc1c(C(=O)N2CCOCC2)[nH]c2c1C(=O)CC(c1ccccc1Cl)C2 (configuration not stated),> 80 µM (inactive)
22,COC(=O)Cc1[nH]n(-c2nc3ccccc3s2)c(=O)c1C(C)=Nc1ccc(OC)cc1,6.49 µM
23,O=C(Nc1ccc(C(F)(F)F)cc1)c1cccn(Cc2ccc3c(c2)OC(F)(F)O3)c1=O,17.2 µM

row,SMILES,IC50
1,COc1cccc(-c2cc(C(=O)Nc3cc(C)n(Cc4ccc(Cl)cc4)n3)no2)c1,> 80 µM (inactive)
2,CC(=O)c1ccc(Oc2cc(C)nc(-n3nc(C)cc3C)n2)cc1,13.5 µM
3,C=CCn1c(SCc2c(C)noc2C)nc2ccccc2c1=O,23 µM (inactive)
4,CCC[C@H]1NC(=O)[C@H](C)N(C)C(=O)C(C)(C)C(=O)C(C)NC(=O)[C@H](Cc2ccc(OC)cc2)N(C)C(=O)[C@H](C(C)C)N(C)C(=O)CNC(=O)[C@H](CC(C)C)N(C)C(=O)CNC(=O)[C@H]([C@@H](C)CC)OC(=O)[C@H]1C (some centres not stated) (cyclo(G[NMeL]G[NMeV][NMeY](Me)[X1][NMeA][X2])),> 80 µM (inactive)
5,COc1cc(C(=O)N2CCN(c3cccc(C)c3C)CC2)cc(OC)c1OC,> 80 µM (inactive)
6,CCc1ccc(S(=O)(=O)/N=C2\C=C(Nc3ccc(O)cc3)C(=O)c3ccccc32)cc1,2.58 µM
7,Cc1cccc(N2CCN(C(=O)c3ccc4[nH]c(C)c(C)c4c3)CC2)c1C,> 80 µM (inactive)
8,COc1ccc([C@H]2CC(=O)C=C(c3c(OC)cccc3OC)C2)cc1,> 80 µM (inactive)
9,COC(=O)c1ccc(C)c(NS(=O)(=O)c2ccc3c(c2)OCCO3)c1,> 80 µM (inactive)
10,CCOC(=O)COc1cccc2c(=O)n(CC(=O)NCc3ccc(F)cc3)ccc12,> 80 µM (inactive)
11,Cc1nc(NCc2ccco2)c2c(C)c(C)sc2n1,3.1 µM
12,Cc1ccc(NC(=O)c2cc3ccccc3oc2=O)cc1S(=O)(=O)N(C)C,0.98 µM
13,Cc1ccc(NC(=O)C2=C(c3ccccc3)S(=O)(=O)CCS2(=O)=O)cc1,1.61 µM
14,COc1cccc(CN(C)C(=O)c2ccc(OCC(=O)Nc3cccc(C(F)(F)F)c3)c(OC)c2)c1,40.5 µM (inactive)
15,CCOc1ccc(-c2[nH]ncc2-c2ccc(OC)c(OC)c2)c(O)c1,28.4 µM (inactive)
16,CCO[C@@H]1OC(C(=O)NCc2nc3ccccc3[nH]2)=C[C@H](C(C)(C)C)[C@H]1CCCO,> 80 µM (inactive)
17,CC1CC(C)CN(S(=O)(=O)c2ccc(NC(=O)c3ccc(=O)[nH]c3)cc2)C1 (configuration not stated),> 80 µM (inactive)
18,CCOc1ccc(N(C)S(=O)(=O)c2ccc(-c3cc(C)no3)s2)cc1,> 80 µM (inactive)
19,COc1cc2c(c(OC)c1OC)-c1ccc(OC)c(=O)cc1[C@@H](N(C)CC#CCO)CC2,> 80 µM (inactive)
20,O=S(=O)(Nc1cccc2ncccc12)c1cccs1,0.89 µM
21,Cc1sc2ncnc(NC3CCN(Cc4ccccc4)CC3)c2c1C,> 80 µM (inactive)
22,COc1cc(Cn2c(-c3nonc3N)nc3ccccc32)ccc1C,> 80 µM (inactive)
23,COc1cc2nc(CN3CC=C(c4ccccc4)CC3)[nH]c(=O)c2cc1OC,> 80 µM (inactive)

row,SMILES,IC50
1,COC(=O)c1[nH]c2ccc(Br)cc2c1NC(=O)CN1CCN(C2CCCCC2)CC1,4.56 µM
2,Cc1ccc2cccc(NS(=O)(=O)c3ccccc3)c2n1,0.98 µM
3,CC(=O)O[C@@]12CO[C@@H]1C[C@@H](O)[C@@]1(C)C(=O)[C@H](O)C3=C(C)[C@@H](OC(=O)[C@H](O)[C@@H](NC(=O)c4ccccc4)c4ccccc4)C[C@@](O)([C@@H](OC(=O)c4ccccc4)C12)C3(C)C (some centres not stated),< 0.16 µM
4,CCCN1C=CC(=C2C(=O)c3ccccc3C2=O)C=C1,0.52 µM
5,O=C(Nc1ccn(Cc2ccccc2F)n1)c1ccc(COc2ccc(Br)cc2)cc1,> 80 µM (inactive)
6,Cc1cc(C(=O)N2CC=C(c3ccccc3)CC2)c2ccccc2n1,75.7 µM (inactive)
7,C[C@]12CC[C@H](O)C[C@H]1CC[C@@H]1[C@@H]2C[C@@H](O)[C@]2(C)[C@@H](C3=CC(=O)OC3)CC[C@]12O,65.7 µM (inactive)
8,CCOc1ccc(N(CC(=O)Nc2ccccc2C)S(=O)(=O)c2c(C)noc2C)cc1,> 80 µM (inactive)
9,Cc1ccc(Nc2cc(C)nn2-c2nc(C)cc(=O)[nH]2)cc1,0.92 µM
10,CN(C)S(=O)(=O)c1ccc(Nc2nc(C3CC3)nc3c2nnn3Cc2ccccc2Cl)cc1,> 80 µM (inactive)
11,Cc1ccc(S(=O)(=O)NCc2ccncc2)c(C)c1C,> 80 µM (inactive)
12,CC(=O)c1sc2c(c1OC(=O)c1ccc(Cl)cc1Cl)c(=O)n(-c1ccccc1)c(=S)n2-c1ccccc1,1.35 µM
13,Clc1ccc2c(c1)C(C1=NCCN1)c1ccccc1CS2 (configuration not stated),58.5 µM (inactive)
14,O=C(Nc1ccc(N2CCN(C(=O)c3ccc(Cl)cc3)CC2)cc1)c1ccc2c(c1)OCCO2,> 80 µM (inactive)
15,COc1cccc(CN(C)C(=O)c2cc(COc3ccc4ncccc4c3)on2)c1,12.5 µM
16,COc1cccc2sc(Nc3nnc(-c4ccccc4Cl)o3)nc12,> 80 µM (inactive)
17,COC(=O)C[C@]1(C(=O)OC)CN(C#N)N(c2ccc(Cl)cc2)C12c1ccccc1-c1ccccc12,0.73 µM
18,Clc1cccc(Cl)c1/C=N/Nc1c(Cl)cncc1Cl,> 80 µM (inactive)
19,COc1ccc(-c2c(C#N)c(N)nc3c2CCc2ccccc2-3)cc1OC,53.6 µM (inactive)
20,CN(C)c1ccc(-c2nn3c(-c4ccccc4Cl)nnc3s2)cc1,> 80 µM (inactive)
21,COc1ccc(NC(=O)C(=O)NCC2CCCN2S(=O)(=O)c2cccs2)cc1 (configuration not stated),7.15 µM
22,O=C(NN=Cc1c(O)ccc2ccccc12)c1ccc2c(c1)OCO2,26.6 µM (inactive)
23,CC(=O)NC(c1ccc2ccccc2c1)c1ccc2cccnc2c1O (configuration not stated),7.22 µM
